Test results from patent US5656206A, “Substituted naphthopyrans” (Transitions Optical, Inc., priority 1995, dated 1997).

Test: Photochromic response rates on an optical bench (polymer test squares)
Assay type: physicochemical
Conditions: for ΔOD@ SATURATION: UV exposure continued for 20 minutes, test square; for ΔOD@ SATURATION / ΔOD/MIN SENSITIVITY: 75° F. (23.9° C.); for ΔOD/MIN SENSITIVITY: measured over first five (5) seconds of UV exposure, expressed per minute, BPA 2EO DMA / poly(ethyleneglycol) 600 dimethacrylate test square; for Bleach (T1/2): time for absorbance of activated form to reach one half the highest absorbance, room temperature (75° F., 23.9° C.), after removal of activating light; for LAMBDA MAX (VISIBLE): wavelength of maximum absorption of the activated (colored) form, in a diethylene glycol bis(allyl carbonate) composition
Description: Testing was done with the photochromic naphthopyrans of the Examples incorporated into polymeric samples by the following method. The quantity of naphthopyran calculated to yield a 1.5 times 10^-3 molal solution was added to a flask containing 50 grams of a monomer blend of 4 parts ethoxylated bisphenol A dimethacrylate (BPA 2EO DMA), 1 part poly(ethyleneglycol) 600 dimethacrylate, and 0.033 weight percent 2,2'-azobis(2-methyl propionitrile) (AIBN). The naphthopyran was dissolved into the monomer blend by stirring and gentle heating, if necessary. After a clear solution was obtained, it was poured into a flat sheet mold having the interior dimensions of 2.2 mm×6 inches (15.24 cm)×6 inches (15.24 cm). The mold was sealed and placed in a horizontal air flow, programmable oven set to increase the temperature from 40° C. to 95° C. over a 5 hour interval, hold the temperature at 95° C. for 3 hours and then lower it to 60° C. for at least 2 hours before the end of the curing cycle. After the mold was opened, the polymer sheet was cut using a diamond blade saw into 2 inch (5.1 centimeters) test squares.
The photochromic test squares prepared in Part A were tested for photochromic response rates on an optical bench. […] The bench was fitted with a 150 watt Xenon arc lamp, a remote controlled shutter, a copper sulfate bath acting as a heat sink for the arc lamp, a Schott WG-320 nm cut-off filter which removes short wavelength radiation; neutral density filter(s) and a sample holder in which the square to be tested was inserted. A collimated beam of light from a tungsten lamp was passed through the square at a small angle normal to the square. After passing through the square, the light from the tungsten lamp was directed through a photopic filter attached to a detector. The photopic filter passes wavelengths such that the detector mimics the response of the human eye. The output signals from the detector(s) were processed by a radiometer.
Change in optical density (ΔOD) was determined by inserting a test square in the bleached state into the sample holder, adjusting the transmittance scale to 100%, opening the shutter from the Xenon lamp to provide ultraviolet radiation to change the test square from the bleached state to an activated (i.e., darkened) state, measuring the transmittance in the activated state, and calculating the change in optical density according to the formula Δ OD=log(100/%Ta) where %Ta is the percent transmittance in the activated state and the logarithm is to the base 10.
The Δ OD/Min, which represents the sensitivity of the photochromic compound's response to UV light, was measured over the first five (5) seconds of UV exposure, then expressed on a per minute basis. The saturation optical density (OD) was taken under identical conditions as the Δ OD/Min, except UV exposure was continued for 20 minutes for the examples in Table 1. The lambda max reported in Table 1 is the wavelength in the visible spectrum at which the maximum absorption of the activated (colored) form of the photochromic compound in a diethylene glycol bis(allyl carbonate) composition occurs.

## COc1ccc(C2(c3ccc(OC)cc3)C=Cc3c(COC(C)=O)c(-c4ccccc4)c4ccccc4c3O2)cc1 [Example 3, 2,2-bis(4-methoxyphenyl)-5-acetoxymethyl-6-phenyl-2H-naphtho[1,2-b]pyran]
  ΔOD@ SATURATION: 0.25
  ΔOD/MIN SENSITIVITY: 0.33 ΔOD/MIN
  Bleach (T1/2): 1.82 min
  LAMBDA MAX (VISIBLE): 508

## COc1ccc(C2(c3ccc(OC)cc3)C=Cc3c(CO)c(-c4ccccc4)c4ccccc4c3O2)cc1 [Example 2, 2,2-bis(4-methoxyphenyl)-5-hydroxymethyl-6-phenyl-2H-naphtho[1,2-b]pyran]
  ΔOD@ SATURATION: 0.26
  ΔOD/MIN SENSITIVITY: 0.32 ΔOD/MIN
  Bleach (T1/2): 2.48 min
  LAMBDA MAX (VISIBLE): 506

## COc1ccc(C2(c3ccc4c(c3)CCO4)C=Cc3c(C(=O)N4CCCCC4)c(C)c4ccc(OC)cc4c3O2)cc1 (centres unmarked) [Example 4, 2-(4-methoxyphenyl)-2-(2,3-dihydrobenzofuran-5-yl)-5-piperidinocarbonyl-6-methyl-9-methoxy-2H-naphtho[1,2-b]pyran]
  ΔOD@ SATURATION: 0.65
  ΔOD/MIN SENSITIVITY: 0.34 ΔOD/MIN
  Bleach (T1/2): > 13.3 min
  LAMBDA MAX (VISIBLE): 535
Conclusion from Table 1
  bleach rate, i.e., fade rate (in words): fades much slower

## COc1ccc(C2(c3ccc(OC)cc3)C=Cc3c(CO)c(C)c4ccc(OC)cc4c3O2)cc1 [Example 1, 2,2-bis(4-methoxyphenyl)-5-hydroxymethyl-6-methyl-9-methoxy-2H-naphtho[1,2-b]pyran]
  ΔOD@ SATURATION: 0.42
  ΔOD/MIN SENSITIVITY: 0.38 ΔOD/MIN
  Bleach (T1/2): 5.05 min
  LAMBDA MAX (VISIBLE): 520
